This is an account of results in ChEMBL document CHEMBL1134097, “Cyclooxygenase-inhibitory and antioxidant constituents of the aerial parts of Antirhea acutata” (Bioorg Med Chem Lett, 2001).

The target in test [1] is T1, Prostaglandin G/H synthase 1 (Homo sapiens, UniProt P23219). The test is described as follows: Activity against Prostaglandin G/H synthase 1 at > 70 ug/mL; inactive.
Test [2] deals with T2, Prostaglandin G/H synthase 2 (Homo sapiens, UniProt P35354).
T2 sequence (P35354 whole entry): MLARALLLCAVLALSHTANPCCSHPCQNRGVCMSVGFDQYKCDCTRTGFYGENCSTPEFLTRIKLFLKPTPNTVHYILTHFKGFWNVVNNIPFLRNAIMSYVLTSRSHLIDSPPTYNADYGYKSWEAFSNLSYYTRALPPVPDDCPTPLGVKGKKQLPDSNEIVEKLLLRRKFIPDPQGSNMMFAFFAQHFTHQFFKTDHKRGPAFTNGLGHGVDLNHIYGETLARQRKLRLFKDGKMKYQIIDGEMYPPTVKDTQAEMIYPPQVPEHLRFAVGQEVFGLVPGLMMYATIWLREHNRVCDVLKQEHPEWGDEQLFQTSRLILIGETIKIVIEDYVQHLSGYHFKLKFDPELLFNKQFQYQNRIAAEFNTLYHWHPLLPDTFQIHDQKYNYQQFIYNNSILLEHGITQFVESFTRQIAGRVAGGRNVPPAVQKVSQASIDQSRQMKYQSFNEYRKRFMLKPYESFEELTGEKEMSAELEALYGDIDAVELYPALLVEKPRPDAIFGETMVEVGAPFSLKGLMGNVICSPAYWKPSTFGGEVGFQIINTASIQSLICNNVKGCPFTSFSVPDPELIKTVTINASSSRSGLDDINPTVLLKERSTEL
The test is described as follows: Activity against Prostaglandin G/H synthase 2 at > 70 ug/mL; inactive.

Test [3] deals with T2, Prostaglandin G/H synthase 2. The test is described as follows: Inhibitory concentration against Prostaglandin G/H synthase 2.
The target in test [4] is T1, Prostaglandin G/H synthase 1. The test is described as follows: Inhibitory concentration against Prostaglandin G/H synthase 1.
The nature of test [5]: Activity determined by cytochrome c reduction antioxidant assay. Type of test: functional.
Test [6] in a line: Activity determined by 1,1-diphenyl-2-picrylhydrazyl (DPPH) free radical antioxidant assay. The test is classed as functional. Background: The DPPH test is a chemical assay of radical scavenging.

T1 sequence (P23219 whole entry): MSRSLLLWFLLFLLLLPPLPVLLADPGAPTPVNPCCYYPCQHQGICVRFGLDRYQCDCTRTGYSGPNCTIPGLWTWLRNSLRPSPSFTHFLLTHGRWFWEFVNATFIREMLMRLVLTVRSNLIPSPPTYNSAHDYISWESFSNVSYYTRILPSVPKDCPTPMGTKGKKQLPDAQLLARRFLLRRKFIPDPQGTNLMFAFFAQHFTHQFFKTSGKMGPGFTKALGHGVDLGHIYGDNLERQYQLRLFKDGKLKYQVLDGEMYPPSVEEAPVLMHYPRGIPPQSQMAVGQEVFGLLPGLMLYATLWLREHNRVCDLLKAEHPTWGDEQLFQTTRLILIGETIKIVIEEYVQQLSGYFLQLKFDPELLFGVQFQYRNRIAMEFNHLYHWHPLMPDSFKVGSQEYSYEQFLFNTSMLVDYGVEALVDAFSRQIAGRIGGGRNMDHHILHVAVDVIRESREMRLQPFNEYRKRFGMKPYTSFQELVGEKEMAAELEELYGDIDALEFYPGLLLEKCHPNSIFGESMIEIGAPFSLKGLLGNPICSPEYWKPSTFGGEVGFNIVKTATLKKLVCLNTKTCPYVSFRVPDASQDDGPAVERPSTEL

As to `C[C@H](CC[C@H](O)C(C)(C)O)[C@H]1CC[C@@]2(C)[C@@H]3CCC4[C@@]5(CC[C@H](O)[C@@]4(C)C(=O)O)C[C@@]35CC[C@]12C` (stereo partly specified), the half-maximal inhibitory concentration (IC50) entry in test [1] and in test [2] was “Not Active” in each case.
Regarding `C=C[C@@H]1[C@@H](O)C[C@@H]2[C@]3(CC[C@]4(C)[C@@H]([C@H](C)CCC=C(C)C)CC[C@@]24C)C[C@]13CCC(=O)O`, the IC50 – broadly, the concentration that gives 50% inhibition – in test [3] is 4.7 µM; in test [4] it was 43.7 µM.
Regarding `COC(=O)C[C@H](c1ccc(O)c(O)c1)c1c(O)cc(O)c2c1O[C@H](c1ccc(O)c(O)c1)[C@H](O)C2`, the results for the IC50 in test [5] and in test [6] were 16.3 µM and 29.1 µM, respectively.
